US12428422B2, “Purine derivatives as SIK-3 inhibitors” (RHIZEN PHARMACEUTICALS AG, priority 2020, dated 2025)

Experiments:
Type in all cases: cell-based
[1] = system: mouse IL-10 mRNA; test: IL-10 mRNA expression in LPS-stimulated mouse bone marrow derived macrophages (real-time PCR); conditions: LPS (1 μg/ml) stimulated mouse BMDM; 1 μM Compound M1 vs 1 μM dasatinib (FIG. 2C)
Protocol: Assay 2: Evaluation of mRNA Expression Levels of IL-10, TNFα, and Arginase-1 in LPS-Stimulated (1 μg/ml) Mouse Bone Marrow Derived Macrophages (BMDM).
Mouse-Bone Marrow Cell Isolation
• Femur bones from healthy mice were collected taking all aseptic precautions. • Bones were severed proximal to each joint using sterile scissors. • A 10 ml syringe with 25-G needle was filled with cold sterile wash medium (DMEM/F12 medium+10% FBS (fetal bovine serum)+1% Penicillin-streptomycin). • The needle was inserted into bone marrow cavity of femur and the cavity was flushed with 2-5 mL of wash medium, until the bone cavity appeared white. • Wash medium was collected in a 50 mL tube and centrifuged at 500×g for 10 minutes at room temperature. • Cells were resuspended in DMEM/F12 medium and cell count was taken. […]
Fold change in the mRNA expression was calculated by 2^−ΔΔCt method and data was plotted using GraphPad Prism.

[2] = system: ZR.75.1 cell lines; test: MTT cell growth inhibition, combination with taxol, ZR.75.1; conditions: combined with taxol, 72 hrs
Protocol: Assay 6: Combination of Compound M1 with Standard Agents in Different Cell Lines
Day 0 • The cells were pelleted and counted. • Cells were plated at desired density (100 μl/well) in complete media in a 96-well plate in triplicates. A column for Day “0” reading was also seeded. (18-20 hrs after initial plating and before addition of the inhibitors) • Plates were incubated at 37° C. and 5% CO2. Day 1 • 10 μl of MTT (5 mg/ml) were added to the column designated for Day “0”. It was mixed well and incubated at 37° C. and 5% CO2 for 3.5 h. Cells were pelleted down at 4000 rpm for 10 minutes. • Media was aspirated out and 150 μl of DMSO were added to the cells and mixed by pipetting to dissolve the crystals • The plate was read at A560 nm and A640 nm. Day 2 • A series of dilutions of the inhibitors were initially made in 100% DMSO and further diluted in growth medium. • Cells were treated with either single agent of DMSO, compound M1, taxol, and a combination of compound M1 and taxol (MDA-MB-231, MCF-7, ZR.75.1 and SK-OV-3). […] Crystals were dissolved by repeated pipetting. • The plate was read at A560 nm and A640 nm. […]
Reference absorbance values were subtracted from test absorbance values. Day 0 values were subtracted from final day absorbance values for determining cell growth. % Cell growth inhibitions were calculated.

[3] = system: TNFα; test: TNFα levels in LPS-stimulated human macrophages by ELISA; conditions: LPS (1 μg/mL) stimulated human macrophages, supernatant after 4 hours
Protocol: Assay 3: TNFα Levels in LPS-Stimulated (1 μg/ml) Human Macrophages Following Treatment with Compound M1 was Estimated by ELISA.
Isolation of Human PBMCs (Peripheral Blood Mononuclear Cells)
The second layer from the top, the buffy coat, was collected carefully with a serological pipette and placed in a new 50 ml centrifuge tube. The volume was made up to 50 mL with 1×PBS and centrifuged at 250×g for 10 min at room temperature. • The supernatant was discarded and red blood cells (RBCs) were resuspended with 5 mL ACK lysis buffer to facilitate RBC lysis and left at room temperature for 5 min. The tube was filled up with 1×PBS and centrifuged at 250×g for 10 min at room temperature. • The supernatant was discarded and the pellet was re-suspended in 5 mL of RPMI complete media. • Cells were counted on a haemocytometer. […] Assay Protocol • Cells were scraped and centrifuged at 250×g for 8 mins and cell concentration was determined. • 0.2×10^6 human macrophages were plated/well in a 96-well plate in RPMI CM with 50 ng/mL of Human M-CSF-1 and incubated overnight at 37° C. and 5% CO2. • Human macrophages were treated with compound M1 for 1 hour followed by addition of LPS (1 μg/mL).
Fold change was calculated, and graphs were plotted using GraphPad Prism. TNFα cytokine levels measured in LPS stimulated human macrophages supernatants were reduced by 75% following treatment with compound M1.

**Q.** Which results are given for `CC[C@H](Nc1ncnc2[nH]c(O)nc12)c1oc2ccccc2c(=O)c1-c1cccc(F)c1` [Compound M1, (S)-3-(3-fluorophenyl)-2-(1-((8-hydroxy-9H-purin-6-yl)amino)propyl)-4H-chromen-4-one]?
**A.** mouse IL-10 mRNA expression, potency relative to dasatinib [1]: equally potent as dasatinib; cell growth inhibition in combination [2]: synergistic results; reduction of TNFα cytokine levels in supernatants [3]: 75%
